Measured values taken from patent publication US10597378B2 (priority 2017, dated 2020).
Read-outs that look alike come from different tables or passages of the source.

Target: MOR (Homo sapiens, UniProt P35372)
Assay: cell-based
Parameters: expressed in transfected cells; host or cells: CHO-K1/MOR/Ga15 cells
Details: for FLIPR Ca2+ AUC: area under the [Ca2+]i fluorescence response curve, up to 90 s
Description: In an exemplary in vitro assay for identifying MOR agonists, cells that express a MOR are treated with a test compound in a cellular calcium fluorescent assay and calcium fluorescence intensity is then measured to determine whether the MOR is activated. A test compound is identified as a MOR agonist if the MOR is activated.
EC50 herein refers to the concentration of a compound that induces a response halfway between the baseline and the maximum after a specified exposure time. AUC refers to the area under the response curve, an indication of the compound's capability of activating a MOR.
One day before the assay, CORNING® black with clear flat bottom 96-well assay plates were coated with a 0.1 mg/mL Poly-L-Lysine solution. CHO-K1/MOR/Ga15 cells were suspended in the F12 medium and plated at a density of about 8×10^4 cells/well in […] medium. Cells were incubated in a humidified atmosphere of 10% CO2 at 37° C. overnight so as to reach an 80-90% confluent cell monolayer before the assay. On the day of the assay, 150 μL medium/well was removed from plate. […] Compounds and other reagents were dissolved in the assay buffer. […] The [Ca^2+]i fluorescence was measured up to 90 s after agonist injection.

[1] = CHO-K1/MOR/Ga15 cells, read-out: FLIPR Ca2+ EC50

Sequence of MOR (P35372 whole entry): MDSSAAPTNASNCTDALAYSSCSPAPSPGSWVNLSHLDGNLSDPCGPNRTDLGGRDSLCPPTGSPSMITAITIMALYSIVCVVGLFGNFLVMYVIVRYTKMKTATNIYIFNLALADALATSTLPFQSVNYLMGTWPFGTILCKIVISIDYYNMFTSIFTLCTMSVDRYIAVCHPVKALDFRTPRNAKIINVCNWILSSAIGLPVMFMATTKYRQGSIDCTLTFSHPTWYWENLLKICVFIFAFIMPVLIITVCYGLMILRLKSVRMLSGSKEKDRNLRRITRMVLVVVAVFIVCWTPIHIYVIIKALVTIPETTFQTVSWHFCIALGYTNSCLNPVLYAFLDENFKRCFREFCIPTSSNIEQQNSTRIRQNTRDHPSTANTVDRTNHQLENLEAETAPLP

| Structure (SMILES) | EC50 [1] [nM] | FLIPR Ca2+ AUC | EC50 [nM] | EC50 (read-out: FLIPR Ca2+ EC50) [nM] | EC50 (FLIPR Ca2+ EC50, CHO-K1/MOR/Ga15 cells) [nM] |
| --- | --- | --- | --- | --- | --- |
| Cc1ccc(C(=O)NCC2NCCc3ccccc32)c(C)c1 (stereo not drawn) [Compound 60, 2,4-Dimethyl-N-(1,2,3,4-tetrahydro-1-isoquinolinylmethyl)benzamide] | 660 | 13375 |  |  |  |
| CC1CCC(C(=O)NCC2c3ccccc3CCN2S(=O)(=O)c2ccc(Br)cc2OC(F)(F)F)CC1 (stereo not drawn) [Compound 20, N-[(2-{[4-Bromo-2-(trifluoromethoxy)phenyl]sulfonyl}-1,2,3,4-tetrahydro-1-isoquinolinyl)methyl]-4-methylcyclohexanecarboxamide] | 970 |  |  |  |  |
| O=C(NCC1c2ccccc2CCN1S(=O)(=O)c1ccc(Cl)cc1)C1CCCCC1 (stereo not drawn) [Compound 17, N-({2-[(4-Chlorophenyl)sulfonyl]-1,2,3,4-tetrahydro-1-isoquinolinyl}methyl)cyclohexanecarboxamide] |  | 6144 | 5970 |  |  |
| Cc1ccc(C(=O)NCC2c3ccccc3CCN2C)cc1C (stereo not drawn) [Compound 66, 3,4-Dimethyl-N-[(2-methyl-1,2,3,4-tetrahydro-1-isoquinolinyl)methyl]benzamide] | 10 | 17393 |  |  |  |
| O=C(NCC1NCCc2ccccc21)c1ccccc1 (stereo not drawn) [Compound 45, N-(1,2,3,4-Tetrahydro-1-isoquinolinylmethyl)benzamide] | 750 | 8628 |  |  |  |
| Cc1ccc(C(=O)NCC2NCCc3ccccc32)cc1C (stereo not drawn) [Compound 58, 3,4-Dimethyl-N-(1,2,3,4-tetrahydro-1-isoquinolinylmethyl)benzamide] |  |  |  | 120 |  |
| O=C(NCC1c2ccccc2CCN1S(=O)(=O)c1ccc(Br)cc1C(F)(F)F)C1CCCCC1 (stereo not drawn) [Compound 7, N-[(2-{[4-Bromo-2-(trifluoromethyl)phenyl]sulfonyl}-1,2,3,4-tetrahydro-1-isoquinolinyl)methyl]cyclohexanecarboxamide] | 2560 | 7697 |  |  |  |
| O=C(NCC1NCCc2ccccc21)c1ccc(Cl)c(Cl)c1 (stereo not drawn) [Compound 59, 3,4-Dichloro-N-(1,2,3,4-tetrahydro-1-isoquinolinylmethyl)benzamide] |  |  |  | 250 |  |
| Cc1cc(Br)ccc1S(=O)(=O)N1CCc2ccccc2C1CNC(=O)C1CCCCC1 (stereo not drawn) [Compound 8, N-({2-[(4-Bromo-2-methylphenyl)sulfonyl]-1,2,3,4-tetrahydro-1-isoquinolinyl}methyl)cyclohexanecarboxamide] | < 10000 | 3757 |  |  | 6270 |
| O=C(NCC1c2ccccc2CCN1S(=O)(=O)c1ccc(Br)cc1OC(F)(F)F)C1CCC1 (stereo not drawn) [Compound 27, N-[(2-{[4-Bromo-2-(trifluoromethoxy)phenyl]sulfonyl}-1,2,3,4-tetrahydro-1-isoquinolinyl)methyl]cyclobutanecarboxamide] | 1340 | 13461 |  |  |  |
| O=C(NCC1NCCc2ccccc21)c1ccccc1OC(F)(F)F (stereo not drawn) [Compound 56, N-(1,2,3,4-Tetrahydro-1-isoquinolinylmethyl)-2-(trifluoromethoxy)benzamide] | 3310 | 7855 |  |  |  |
| O=C(NCC1NCCc2ccccc21)C1CCCCC1 (stereo not drawn) [Compound 5, N-(1,2,3,4-Tetrahydro-1-isoquinolinylmethyl)cyclohexanecarboxamide] | 6380 | 6142 |  |  |  |
| COc1cccc(C(=O)NCC2NCCc3ccccc32)c1 (stereo not drawn) [Compound 51, 3-Methoxy-N-(1,2,3,4-tetrahydro-1-isoquinolinylmethyl)benzamide] | 860 | 13302 |  |  |  |
| Cc1ccc(S(=O)(=O)N2CCc3ccccc3C2CNC(=O)C2CCCCC2)cc1 (stereo not drawn) [Compound 18, N-({2-[(4-Methylphenyl)sulfonyl]-1,2,3,4-tetrahydro-1-isoquinolinyl}methyl)cyclohexanecarboxamide] |  | 6808 | 6440 |  |  |
| CCc1ccc(C(=O)NCC2c3ccccc3CCN2C)cc1 (stereo not drawn) [Compound 65, 4-Ethyl-N-[(2-methyl-1,2,3,4-tetrahydro-1-isoquinolinyl)methyl]benzamide] | 10 | 18367 |  |  |  |
| O=C(NCC1NCCc2ccccc21)c1cccc(F)c1 (stereo not drawn) [Compound 52, 3-Fluoro-N-(1,2,3,4-tetrahydro-1-isoquinolinylmethyl)benzamide] | 780 | 11425 |  |  |  |
| Cc1ccc(C(=O)NCC2c3ccccc3CCN2CC(C)C)cc1 (stereo not drawn) [Compound 63, 4-Methyl-N-{[2-(2-methylpropyl)-1,2,3,4-tetrahydro-1-isoquinolinyl]methyl}benzamide] | 110 | 18418 |  |  |  |
| O=C(NCC1c2ccccc2CCN1S(=O)(=O)c1ccc(Br)cc1Cl)C1CCCCC1 (stereo not drawn) [Compound 11, N-({2-[(4-Bromo-2-chlorophenyl)sulfonyl]-1,2,3,4-tetrahydro-1-isoquinolinyl}methyl)cyclohexanecarboxamide] |  | 7597 | 5610 |  |  |

| Structure (SMILES) | EC50 [1] [nM] | FLIPR Ca2+ AUC | EC50 [nM] | EC50 (read-out: FLIPR Ca2+ EC50) [nM] | EC50 (FLIPR Ca2+ EC50, CHO-K1/MOR/Ga15 cells) [nM] |
| --- | --- | --- | --- | --- | --- |
| O=C(NCC1NCCc2ccccc21)C1CCC1 (stereo not drawn) [Compound 44, N-(1,2,3,4-Tetrahydro-1-isoquinolinylmethyl)cyclobutanecarboxamide] | 6800 | 3646 |  |  |  |
| O=C(NCC1c2ccccc2CCN1S(=O)(=O)c1ccc(Br)cc1)C1CCCCC1 (stereo not drawn) [Compound 9, N-({2-[(4-Bromophenyl)sulfonyl]-1,2,3,4-tetrahydro-1-isoquinolinyl}methyl)cyclohexanecarboxamide] | 8820 | 6103 |  |  |  |
| O=C(NCC1c2ccccc2CCN1S(=O)(=O)c1ccc(F)cc1C(F)(F)F)C1CCCCC1 (stereo not drawn) [Compound 15, N-[(2-{[4-Fluoro-2-(trifluoromethyl)phenyl]sulfonyl}-1,2,3,4-tetrahydro-1-isoquinolinyl)methyl]cyclohexanecarboxamide] | 5880 | 5153 |  |  |  |
| CC1CCCCC1C(=O)NCC1NCCc2ccccc21 (stereo not drawn) [Compound 41, 2-Methyl-N-(1,2,3,4-tetrahydro-1-isoquinolinylmethyl)cyclohexanecarboxamide] | 10000 | 5627 |  |  |  |
| O=C(NCC1c2ccccc2CCN1S(=O)(=O)c1ccc(Br)cc1Br)C1CCCCC1 (stereo not drawn) [Compound 10, N-({2-[(2,4-Dibromophenyl)sulfonyl]-1,2,3,4-tetrahydro-1-isoquinolinyl}methyl)cyclohexanecarboxamide] | 3310 | 7023 |  |  |  |
| Cc1ccc(C(=O)NCC2c3ccccc3CCN2CCCl)cc1 (stereo not drawn) [Compound 64, N-{[2-(2-Chloroethyl)-1,2,3,4-tetrahydro-1-isoquinolinyl]methyl}-4-methylbenzamide] | 30 |  |  |  |  |
| O=C(NCC1NCCc2ccccc21)c1ccc(Cl)cc1 (stereo not drawn) [Compound 49, 4-Chloro-N-(1,2,3,4-tetrahydro-1-isoquinolinylmethyl)benzamide] |  |  |  | 230 |  |
| COc1ccccc1S(=O)(=O)N1CCc2ccccc2C1CNC(=O)C1CCCCC1 (stereo not drawn) [Compound 14, N-({2-[(2-Methoxyphenyl)sulfonyl]-1,2,3,4-tetrahydro-1-isoquinolinyl}methyl)cyclohexanecarboxamide] | 22500 | 3327 |  |  |  |
| Cc1ccc(C(=O)NCC2c3ccccc3CCN2C)cc1 (stereo not drawn) [Compound 61, 4-Methyl-N-[(2-methyl-1,2,3,4-tetrahydro-1-isoquinolinyl)methyl]benzamide] | 40 | 14757 |  |  |  |
| O=C(NCC1NCCc2ccccc21)N1CCCC1 (stereo not drawn) [Compound 37, N-(1,2,3,4-Tetrahydro-1-isoquinolinylmethyl)-1-pyrrolidinecarboxamide] | 4020 | 3480 |  |  |  |
| O=C(NCC1NCCc2ccccc21)c1ccccc1F (stereo not drawn) [Compound 57, 2-Fluoro-N-(1,2,3,4-tetrahydro-1-isoquinolinylmethyl)benzamide] | 3280 | 12102 |  |  |  |
| O=C(NCC1NCCc2ccccc21)c1ccc(OC(F)(F)F)cc1 (stereo not drawn) [Compound 47, N-(1,2,3,4-Tetrahydro-1-isoquinolinylmethyl)-4-(trifluoromethoxy)benzamide] |  |  |  | 370 |  |
| O=C(NCC1c2ccccc2CCN1S(=O)(=O)c1ccc(Br)cc1OC(F)(F)F)N1CCCCC1 (stereo not drawn) [Compound 25, N-[(2-{[4-Bromo-2-(trifluoromethoxy)phenyl]sulfonyl}-1,2,3,4-tetrahydro-1-isoquinolinyl)methyl]-1-piperidinecarboxamide] | 2770 | 10498 |  |  |  |
| COc1ccc(S(=O)(=O)N2CCc3ccccc3C2CNC(=O)C2CCCCC2)cc1 (stereo not drawn) [Compound 19, N-({2-[(4-Methoxyphenyl)sulfonyl]-1,2,3,4-tetrahydro-1-isoquinolinyl}methyl)cyclohexanecarboxamide] | 7840 | 3418 |  |  |  |
| O=C(NCC1NCCc2ccccc21)c1ccc(F)cc1 (stereo not drawn) [Compound 48, 4-Fluoro-N-(1,2,3,4-tetrahydro-1-isoquinolinylmethyl)benzamide] |  |  |  | 540 |  |
| COc1ccc(C(=O)NCC2NCCc3ccccc32)cc1 (stereo not drawn) [Compound 46, 4-Methoxy-N-(1,2,3,4-tetrahydro-1-isoquinolinylmethyl)benzamide] |  |  |  | 370 |  |
| O=C(NCC1c2ccccc2CCN1S(=O)(=O)c1ccccc1OC(F)(F)F)C1CCCCC1 (stereo not drawn) [Compound 13, N-[(2-{[2-(Trifluoromethoxy)phenyl]sulfonyl}-1,2,3,4-tetrahydro-1-isoquinolinyl)methyl]cyclohexanecarboxamide] | 3310 | 5152 |  |  |  |
